The values that follow come from patent publication US20210346366A1, “CH24H INHIBITORS FOR PAIN USE” (Takeda Pharmaceutical Company Limited, priority 2018, published 2021).

Broadly, the EC50 is the midpoint of the concentration-response curve.

Experiment [1] concerns mouse model of chronic post-ischemic pain. Briefly: mouse model of chronic post-ischemic pain (CRPS model), von Frey paw withdraw threshold. The experiment is classed as in vivo. Conditions: 30 mg/kg orally once daily for 7 days. As to the method: The following Example provides data from a mouse model of chronic post-ischemic pain, which recapitulates symptoms seen in CRPS patients with peripheral tissue injury and subsequent progression of allodynia. (4-Benzyl-4-hydroxypiperidin-1-yl) (2,4′-bipyridin-3-yl)methanone was tested in the CRPS model for its potential effects on pain. Following 3-hour ischemia and 0.5-hour reperfusion given at a hind limb, mice (C57) were orally treated with (4-benzyl-4-hydroxypiperidin-1-yl) (2,4′-bipyridin-3-yl)methanone at the dose of 30 mg/kg once daily for 7 days (n=8). Paw withdraw threshold was evaluated with von Frey filaments as a behavioral index of mechanical allodynia at 0 h for the base line, 6 h, Days 1, 2, 4 and 7. The cumulative score of paw withdraw threshold over the study period was 17.7 in the sham-treated control group without ischemia/reperfusion injury. In the groups given ischemic injury, the cumulative score was 9.0 and 16.2 for the vehicle control and (4-benzyl-4-hydroxypiperidin-1-yl) (2,4′-bipyridin-3-yl)methanone group, respectively.

In experiment [2] the test system is rat cortical spreading depression (CSD) model. Briefly: rat cortical spreading depression (CSD) model, KCl-induced. Type of experiment: in vivo. Conditions: female Wistar rats, 10 mg/kg orally once daily for 6 days. The method, then: The following Example provides data from a rat cortical spreading depression (CSD) model, which recapitulates symptoms seen in migraine patients with aura. (2R)-1-((1-(4-(4-Methyl-1H-pyrazol-1-yl)pyridin-3-yl)piperidin-4-yl)carbonyl)pyrrolidine-2-carbonitrile was tested in the CSD model for its potential effects on hyperperfusion events and cortical direct current (DC)-potentials. Adult female Wistar rats from Charles River Germany were used for the experiment. Animals were housed at a standard temperature (22±1° C.) and in a light-controlled environment (lights on from 7 am to 8 pm) with ad libitum access to food and water. Rats were orally treated with vehicle (0.5% methylcellulose in water) or (2R)-1-((1-(4-(4-methyl-1H-pyrazol-1-yl)pyridin-3-yl)piperidin-4-yl)carbonyl)pyrrolidine-2-carbonitrile at the dose of 10 mg/kg once daily for 6 days (n=8). One hour after the last dosing, rats were anesthetized with 5% isoflurane (in 70% N2O and 30% O2; flow 300 ml/min), and placed in a stereotactic frame.
During the operation and CSD the concentration of anesthetic was reduced to 1-1.5%. The rectal temperature was maintained at 37.0±1.0° C. with a homeothermic blanket system. The skin was opened by a medial incision and retracted laterally. Three burr holes were drilled under saline cooling over the right hemisphere at the following coordinates (mm from bregma): (1) posterior 4.5, lateral, 2.0 (occipital cortex): KCl application site; (2) posterior 0.5, lateral 2.0 (parietal cortex) (3) anterior 2, lateral 2 (frontal cortex). A laser-Doppler flow probe (Oxyflow, Oxford Optronics, UK) to monitor cerebral blood flow (CBF) was placed in the parietal cortex burr holes on the intact dura. An invasive Ag/AgCl electrode for measuring DC potential shifts was placed in the frontal cortex burr holes on the intact dura. For the DC-potential measurement, a reference electrode was fixed in the neck. […] The number of KCl-induced CSDs was checked over the period of 2 hours and the number of CBF changes was also measured. […]

Another experiment deals with NMDA receptors. Conditions: read-out: EC50 as positive allosteric modulator of NMDA receptors; cited from earlier work.

The structures appear in SMILES notation.

Turning to `O=C(c1cccnc1-c1ccncc1)N1CCC(O)(Cc2ccccc2)CC1` [(4-benzyl-4-hydroxypiperidin-1-yl) (2,4′-bipyridin-3-yl)methanone], in experiment [1] (C57 mice with ischemic injury), the “allodynia threshold (effect of treatment)” value was “markedly increased”. The “cumulative score of paw withdraw threshold over the study period” value in experiment [1] (C57 mice, 3-hour ischemia and 0.5-hour reperfusion at a hind limb, von Frey filaments, vehicle 9.0, sham 17.7) turned out to be 16.2.
On to `Cc1cnn(-c2ccncc2N2CCC(C(=O)N3CCC[C@@H]3C#N)CC2)c1` [(2R)-1-((1-(4-(4-methyl-1H-pyrazol-1-yl)pyridin-3-yl)piperidin-4-yl)carbonyl)pyrrolidine-2-carbonitrile], for which the “CSD events (effect of treatment)” value in experiment [2] is “markedly reduced”. Also, in experiment [2] (counted over 2 hours, vehicle 10.00), the “average number of KCl-induced CSDs” value stood at 4.75. The “average number of CBF changes” value in experiment [2] (over 2 hours, vehicle 22.75) is 15.75.
For `CC(C)[C@@H](O)CC[C@@H](C)[C@H]1CC[C@H]2[C@@H]3CC=C4C[C@@H](O)CC[C@]4(C)[C@H]3CC[C@]12C` [24(S)-hydroxycholesterol], the 50% effective concentration (EC50) on NMDA receptors is 1200 nM.
